In patent publication US7521444B2, “Compounds for the treatment of hepatitis C” (Bristol-Myers Squibb Company, priority 2007, dated 2009):

Experiments:
[1] = test system: HCV replicon cells; test: HCV replicon FRET / luciferase assay; format: cell-based; conditions: 50% reduction in FRET or luciferase activity
Procedure: FRET Assay Preparation. The HCV FRET screening assay was performed in 96-well cell culture plates. The FRET peptide (Anaspec, Inc.) (Taliani et al., Anal. Biochem. 1996, 240, 60-67) contains a fluorescence donor, EDANS, near one end of the peptide and an acceptor, DABCYL, near the other end. The fluorescence of the peptide is quenched by […] resonance energy transfer (RET) between the donor and the acceptor, but as the NS3 protease cleaves the peptide the products are released from RET quenching and the fluorescence of the donor becomes apparent. The assay reagent was made as follows: 5× cell Luciferase cell culture lysis reagent from Promega (#E153A) diluted to 1× with dH2O, NaCl added to 150 mM final, the FRET peptide diluted to 20 μM final from a 2 mM stock.
To prepare plates, HCV replicon cells, with or without a Renilla luciferase reporter gene, were trypsinized and plated in a 96-well plate with titrated test compounds added in columns 3 through 12; columns 1 and 2 contained a control compound (HCV control inhibitor), and the bottom row contained cells with DMSO only. The plates were then placed in a CO2 incubator at 37° C.
Assays. Subsequent to addition of the test compounds described above (FRET Assay Preparation), at various times the plate was removed and Alamar blue solution (Trek Diagnostics, #00-100) was added to measure cellular toxicity. After reading in a Cytoflour 4000 instrument (PE Biosystems), plates were rinsed with PBS and then used for FRET assay by the addition of 30 ul of the FRET peptide assay reagent described above (FRET Assay Preparation) per well. The plate was then placed into the Cytoflour 4000 instrument which had been set to 340 excite/490 emission, automatic mode for up to 20 cycles and the plate read in a kinetic mode. Typically, the signal to noise using an endpoint analysis after the reads was at least three-fold. Alternatively, after Alamar blue reading, plates were rinsed with PBS, then used for luciferase assay using the Promega Dual-Glo Luciferase Assay System or the Promega EnduRen Live Cell Substrate assay.
Compound analysis was performed by quantification of the relative HCV replicon inhibition and the relative cytotoxicity values. To calculate cytoxicity values, the average Alamar Blue fluorescence signals from the control wells were set as 100% non-toxic. The individual signals in each of the compound test wells were then divided by the average control signal and multiplied by 100% to determine […]. To calculate the HCV replicon inhibition values, an average background value was obtained from the two wells containing the highest amount of HCV control inhibitor at the end of the assay period. These numbers were similar to those obtained from naïve Huh-7 cells. The background numbers were then subtracted from the average signal obtained from the control wells and this number was used as 100% activity. The individual signals in each of the compound test wells were then divided by the averaged control values after background subtraction and multiplied by 100% to determine percent activity. EC50 values were calculated as the concentration which caused a 50% reduction in FRET or luciferase activity. The two numbers generated for the compound plate, percent cytoxicity and percent activity, were used to determine compounds of interest for further analysis.

[2] = target: T1, HCV NS5B (Hepatitis C virus genotype 1b, UniProt Q9WMX2); test: HCV NS5B RdRp enzyme assay (standard or modified); format: biochemical; conditions: HCV NS5B RdRp genotype 1b enzyme; standard or modified assay not stated
T1 construct: The protein was expressed with an 18 amino acid C-terminal truncation to enhance the solubility; made in house; host or cells: E. coli BL21(DE3), pET21a
T1 sequence (Q9WMX2 2420-2992): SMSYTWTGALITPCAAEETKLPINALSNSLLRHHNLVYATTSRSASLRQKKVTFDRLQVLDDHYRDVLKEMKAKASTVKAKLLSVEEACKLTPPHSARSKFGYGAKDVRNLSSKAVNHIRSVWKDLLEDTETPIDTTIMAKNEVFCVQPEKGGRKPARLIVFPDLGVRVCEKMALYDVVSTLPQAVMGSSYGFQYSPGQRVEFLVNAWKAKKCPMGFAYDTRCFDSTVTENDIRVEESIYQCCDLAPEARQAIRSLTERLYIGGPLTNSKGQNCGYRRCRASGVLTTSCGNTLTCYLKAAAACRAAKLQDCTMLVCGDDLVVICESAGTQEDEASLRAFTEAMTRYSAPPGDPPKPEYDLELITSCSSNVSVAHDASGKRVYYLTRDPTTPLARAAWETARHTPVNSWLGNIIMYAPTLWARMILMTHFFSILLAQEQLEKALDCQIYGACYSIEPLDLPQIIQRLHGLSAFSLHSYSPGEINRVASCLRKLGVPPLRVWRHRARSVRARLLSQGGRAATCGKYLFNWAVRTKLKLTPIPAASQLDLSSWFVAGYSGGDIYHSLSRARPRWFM
Procedure: HCV NS5B RdRp cloning, expression, and purification. The cDNA encoding the NS5B protein of HCV, genotype 1b, was cloned into the pET21a expression vector. The protein was expressed with an 18 amino acid C-terminal truncation to enhance the solubility. The E. coli competent cell line BL21(DE3) was used for expression of the protein. Cultures were grown at 37° C. for ˜4 hours until the cultures reached an optical density of 2.0 at 600 nm. The cultures were cooled to 20° C. and induced with 1 mM IPTG. Fresh ampicillin was added to a final concentration of 50 μg/ml and the cells were grown overnight at 20° C.
Cell pellets (3 L) were lysed for purification to yield 15-24 mgs of purified NS5B. The lysis buffer consisted of 20 mM Tris-HCl, pH 7.4, 500 mM NaCl, 0.5% triton X-100, 1 mM DTT, 1 mM EDTA, 20% glycerol, 0.5 mg/ml lysozyme, 10 mM MgCl2, 15 ug/ml deoxyribonuclease I, and Complete TM protease inhibitor tablets (Roche). After addition of the lysis buffer, frozen cell pellets were resuspended using a tissue homogenizer. To reduce the viscosity of the sample, aliquots of the lysate were sonicated on ice using a microtip attached to a Branson sonicator. The sonicated lysate was centrifuged at 100,000×g for 1 hr at 4° C. and filtered through a 0.2 μm filter unit (Corning).
The protein was purified using two sequential chromatography steps: Heparin sepharose CL-6B and polyU sepharose 4B (Pharmacia). The chromatography buffers were identical to the lysis buffer but contained no lysozyme, deoxyribonuclease I, MgCl2 or protease inhibitor and the NaCl concentration of the buffer was adjusted according to the requirements for charging the protein onto the column. Each column was eluted with a NaCl gradient which varied in length from 5-50 column volumes depending on the column type. After the final chromatography step, the resulting purity of the enzyme is >90% based on SDS-PAGE analysis. The enzyme was aliquoted and stored at −80° C.
Standard HCV NS5B RdRp enzyme assay. HCV RdRp genotype 1b assays were run in a final volume of 60 μl in 96 well plates (Corning 3600). The assay buffer is composed of 20 mM Hepes, pH 7.5, 2.5 mM KCl, 2.5 mM MgCl2, 1 mM DTT, 1.6 U RNAse inhibitor (Promega N2515), 0.01 mg/ml BSA (Sigma B6917), and 2% glycerol. All compounds were serially diluted (3-fold) in DMSO and diluted further in water such that the final concentration of DMSO in the assay was 2%. HCV RdRp genotype 1b enzyme was used at a final concentration of 28 nM. A polyA template was used at 6 nM, and a biotinylated oligo-dT12 primer was used at 180 nM final concentration. Template was obtained commercially (Amersham 27-4110). Biotinylated primer was prepared by Sigma Genosys. 3H-UTP was used at 0.6 μCi (0.29 μM total UTP). Reactions were initiated by the addition of enzyme, incubated at 30° C. for 60 min, and stopped by adding 25 μl of 50 mM EDTA containing SPA beads (4 μg/μl, Amersham RPNQ 0007). Plates were read on a Packard Top Count NXT after >1 hr incubation at room temperature.
Modified HCV NS5B RdRp enzyme assay. A modified enzyme assay was performed essentially as described for the standard enzyme assay except for the following: The biotinylated oligo dT12 primer was precaptured on streptavidin-coated SPA beads by mixing primer and beads in assay buffer and incubating at room temperature for one hour. Unbound primer was removed after centrifugation. The primer-bound beads were resuspended in 20 mM Hepes buffer, pH 7.5 and used in the assay at final concentrations of 20 nM primer and 0.67 μg/μl beads. Order of addition in the assay: enzyme (1.75 nM) was added to diluted compound followed by the addition of a mixture of template (0.36 nM), 3H-UTP (0.6 μCi, 0.29 μM), and primer-bound beads, to initiate the reaction; concentrations given are final. Reactions were allowed to proceed for 4 hours at 30° C.
IC50 values for compounds were determined using seven different [I]. […]

| Compound | EC50 ([1]; Hepatitis C virus) | IC50 [2] | EC50 [1] |
| --- | --- | --- | --- |
| COc1ccc2c(c1)C1CC1(C(=O)N1CCN3CCCC3C1)Cn1c-2c(C2CCCCC2)c2ccc(C(=O)NS(=O)(=O)C(C)C)cc21 (centres unmarked) | 4.58 to 500 nM | 4.58 to 500 nM | – |
| COc1ccc2c(c1)C1CC1(C(=O)N1CC3CCCN(C)C3C1)Cn1c-2c(C2CCCCC2)c2ccc(C(=O)NS(=O)(=O)N(C)C)cc21 (centres unmarked) | 4.58 to 500 nM | 4.58 to 500 nM | – |
| COc1ccc2c(c1)[C@@H]1C[C@]1(C(=O)N1CC3CCCN(C(C)=O)C3C1)Cn1c-2c(C2CCCCC2)c2ccc(C(=O)NS(=O)(=O)N(C)C)cc21 (some centres unmarked) [drawing 72] | 4.58 to 500 nM | 4.58 to 500 nM | – |
| COc1ccc2c(c1)C1CC1(C(=O)N1CC3CN(C(=O)N4CCCC4)CC3C1)Cn1c-2c(C2CCCCC2)c2ccc(C(=O)NS(=O)(=O)N(C)C)cc21 (centres unmarked) | 4.58 to 500 nM | 4.58 to 500 nM | – |
| COc1ccc2c(c1)C1CC1(C(=O)N1CC3CCCN(C(=O)OC(C)(C)C)C3C1)Cn1c-2c(C2CCCCC2)c2ccc(C(=O)NS(=O)(=O)N(C)C)cc21 (centres unmarked) [drawing 20] | – | 4.58 to 500 nM | 4.58 to 500 nM |
| COc1ccc2c(c1)C1CC1(C(=O)N1CC3CCCN(C(=O)OC(C)(C)C)C3C1)Cn1c-2c(C2CCCCC2)c2ccc(C(=O)NS(=O)(=O)N(C)C)cc21 (centres unmarked) [drawing 24] | 4.58 to 500 nM | 4.58 to 500 nM | – |
| COc1ccc2c(c1)C1CC1(C(=O)N1C[C@@H]3CCCN3C[C@@H]1CC(C)C)Cn1c-2c(C2CCCCC2)c2ccc(C(=O)NS(=O)(=O)N(C)C)cc21 (some centres unmarked) | 4.58 to 500 nM | 4.58 to 500 nM | – |
| COc1ccc2c(c1)[C@@H]1C[C@]1(C(=O)N1CCN3CCC[C@@H]3C1)Cn1c-2c(C2CCCCC2)c2ccc(C(=O)NS(=O)(=O)N(C)C)cc21 | 4.58 to 500 nM | 4.58 to 500 nM | – |
| COc1ccc2c(c1)C1CC1(C(=O)N1CCN3CCCC3C1)Cn1c-2c(C2CCCCC2)c2ccc(C(=O)NS(=O)(=O)N3CCC3)cc21 (centres unmarked) | 4.58 to 500 nM | 4.58 to 500 nM | – |
| COc1ccc2c(c1)C1CC1(C(=O)N1CC3CCCN(C)C3C1)Cn1c-2c(C2CCCCC2)c2ccc(C(=O)NS(=O)(=O)C3CC3)cc21 (centres unmarked) | 4.58 to 500 nM | 4.58 to 500 nM | – |
| COc1ccc2c(c1)C1CC1(C(=O)N1C[C@H]3CNC[C@H]3C1)Cn1c-2c(C2CCCCC2)c2ccc(C(=O)NS(=O)(=O)N(C)C)cc21 (some centres unmarked) | 4.58 to 500 nM | 4.58 to 500 nM | – |
| COc1ccc2c(c1)C1CC1(C(=O)N1CCC[C@H]3CN(Cc4ccccc4)C[C@H]31)Cn1c-2c(C2CCCCC2)c2ccc(C(=O)NS(=O)(=O)C3CC3)cc21 (some centres unmarked) | 4.58 to 500 nM | 4.58 to 500 nM | – |
| COc1ccc2c(c1)C1CC1(C(=O)N1CCN3CCC[C@H]3C1)Cn1c-2c(C2CCCCC2)c2ccc(C(=O)NS(=O)(=O)C3CC3)cc21 (some centres unmarked) | 4.58 to 500 nM | 4.58 to 500 nM | – |
